Measured values: paper PMC4104029, “Mechanism of Action of Compound-13: An α1-Selective Small Molecule Activator of AMPK” (Chemistry & Biology, 2014)

Experiments:
adenylate kinase = assay: Adenylate kinase assay; type: biochemical; settings: concentrations up to 100 μM; data not shown
Description: Additional enzyme assays. Glycogen phosphorylase (EC 2.4.1.1) was assayed in the physiological direction in reactions containing 20 mM BES pH 6.8, 20 mM phosphate, 1 mM NADP+, 0.5 mM MgCl2, 0.1 % glycogen, 4 µM glucose-1,6-bisphosphate, 0.5 mM DTT, 0.025 % BSA, 0.6 U/ml phosphoglucomutase and 3 U/ml glucose-6-phosphate dehydrogenase (G6PDH). FBP1 (EC 3.1.3.11) was assayed in reactions containing 50 mM TES pH 7.4, 0.1 […]
mM 2-mercaptoethanol, 25 µM fructose-1,6-bisphosphate, 0.8 U/ml phosphoglucoisomerase and 0.5 U/ml G6PDH. PFK1 (EC 2.7.1.11) was assayed in reactions containing 50 mM TES pH 7.4, 2 mM MgCl2, 0.05 % BSA, 2 mM 2-mercaptoethanol, 0.5 mM fructose-6-phosphate, 1 mM ATP, 0.2 mM NADH, 0.5 U/ml aldolase, 15 U/ml triosephosphate isomerase and 2 U/ml α-glycerophosphate dehydrogenase. […] All assays were performed in a final volume of 250 µl and were monitored by changes in fluorescence (FBP1 - λex 340nm, λem 450nm) or A340. […] Liberated phosphate was determined using malachite green reagent. […] The formation of pyrophosphate (PPi) was monitored by reduction of PPi-molybdate complexes using 2-mercaptoethanol and Fiske-Subbarow reducer (Kuang, et al., 2007). […]
Tricistronic expression vectors were constructed using a strategy inspired by Neumann et al (Neumann, et al., 2003). […] The open reading frame of AMPKα1 and AMPKα2 was inserted after the 6×His tag as a Bamh1-Not1 fragment. […]

β1-KO hepatocytes = assay: AMPK signaling, western blotting; type: cell-based, mouse; settings: 1 hr; A769662 100 μM
Description: (§1) Figure 7 C13 Activates Both β1 and β2 Complexes in Mouse Hepatocytes (A) Hepatocytes from WT, AMPKβ1^−/−, and AMPKβ2^−/− mice were incubated with the indicated concentrations of C13 for 1 hr. A769662 (100 μM) was included as a positive control. Lysates were analyzed using western blotting with the indicated antibodies. (B) Mouse hepatocytes from the indicated genotypes were treated with the indicated concentrations of C13 and labeled with [^3H]acetate for 4 hr. Lipogenesis was estimated from the incorporation of acetate into total lipids. Results are expressed as the mean acetate incorporated in micromoles per gram-hour ± SD.

WT and β2-KO hepatocytes = assay: AMPK signaling, western blotting; type: cell-based, mouse; settings: 1 hr; A769662 100 μM
Description: as §1

Compound | effect on enzyme activity (adenylate kinase) | stimulation of AMPK (Thr172 phosphorylation) (β1-KO hepatocytes) | phosphorylation of Thr172 and ACC, as well as Raptor (WT and β2-KO hepatocytes)
O=P(O)(O)c1ccc(-c2cc(O)on2)o1 [Compound C2, 5-(5-hydroxyl-isoxazol-3-yl)-furan-2-phosphonic acid] | None of these enzymes were affected |  | 
CC(C)C(=O)OCOP(=O)(OCOC(=O)C(C)C)c1ccc(C2=NOC(=O)C2)o1 [Compound C13] |  | modestly stimulated | robustly stimulated
